Reference: patent publication US6180600A, “CD8 antagonists” (Thomas Jefferson University, priority 1997, dated 2001)
Bridge positions count the residues as written; N and C are the ends. Ends that are not written are not given here.

Tests used:
[1] = test system: cytotoxic T-cell mediated lympholysis of 51Cr labelled EL-4 (H-2b) targets; test: 4 hour 51Cr release assay: inhibition of cytotoxic T-cell mediated lympholysis by peptide; assay type: cell-based, mouse (AKR/J anti C57BL/6 effectors); conditions: for inhibition of specific lysis of targets: peptide 100, 10 or 1 μg/ml pre-incubated 30 minutes at 37° C. with effectors, Effector:Target 30:1, 10:1, 3:1, 1:1, 4 hour lysis
Protocol: The effect of peptide on cytotoxicity was measured in a 4 hour ^51 Cr release assay. H-2^b specific effectors were generated in a AKR/J (H-2^k) anti C57BL/6 (H-2^b) mixed lymphocyte reaction. The stimulators (C57BL/6 spleen cells) are gamma-irradiated at 1500 RADS. The targets were obtained from a tumor cell line, EL-4 (H-2^b), that were labelled with Na^51 CrO4. On Day 5 the effectors are harvested and counted. The peptide, at concentrations of 100 μg/ml, 10 μg/ml or 1 μg/ml, was first incubated for 30 minutes at 37° C. with effectors of varying numbers and then ^51 Cr labelled targets were added in a 4 hour specific lysis experiment. The target cell lysis was assessed at Effector:Target ratios of 30:1, 10:1, 3:1, and 1:1. Toxic effects of the peptide was determined by the % specific lysis above background that was obtained by incubating just peptide and labelled targets. No toxic effects were observed. Also, anti-CD8 monoclonal antibody that blocks the interaction resulting in lowered lympholysis is used in the assay.

[2] = test system: activation of CTL in AKR/J anti C57BL/6 mixed lymphocyte reaction; test: Inhibition of activation/generation of cytotoxic T-cells: mixed lymphocyte reaction in presence of peptide, then 51Cr release; assay type: cell-based, mouse; conditions: peptide present during MLR; effectors washed on Day-6; 4-hour lysis of EL-4 targets
Protocol: The effect of the peptide on the activation of CTL capable of lympholysis was determined by generating effector T-cells in AKR/J anti C57BL/6 mixed lymphocyte reaction in the presence of peptide. On Day-6, effectors are washed and then ^51 Cr-labelled EL-4 targets were added in a 4-hour specific lysis experiment.

[3] = test system: allogeneic skin graft rejection; test: Murine skin transplantation (tail skin allograft onto bm1 recipients); assay type: in vivo, mouse
Source text: Tail skin from C57BL/7 [H-2b] donor is grafted onto the ventral side of bm1 recipient tails. The donors are asphyxiated and 2×4 mm tail pieces are cut. These grafts are placed in 0.1% BSA in PBS on ice. Recipients are anesthetized in isoflurane chamber. While still anesthetized, grafting beds of 10×10 mm on the ventral side of the tail are cut. Two grafting beds per mouse are made, one for syngeneic graft and the other for the allogeneic graft. The grafts are turned 180' and placed in the beds such that the hair of the graft grows in the opposite direction. The grafts are trimmed if necessary such that they fit in the beds without skin hanging over the edge of the beds. A blunt glass tube is placed over the grafts and taped into place. This glass is removed on day 2 post-transplantation.
Five animals per treatment group are used and treatment is prior to transplantation. The untreated group is injected into the tail vein with 200 μl of PBS on Day 0.
Grafts are observed every other day for signs of rejection. […] Grafts are considered rejected due to mechanical failure if the grafts are rejected by Day 3.

[4] = test system: GVHD, primarily CD8+ based; test: Murine model of GVHD (B10.BR ATBM plus CD8+ T-cells into lethally irradiated host); assay type: in vivo, mouse; conditions: 0.5 mgs peptide on Day 0, 3 and 6; FIG. 2
Protocol: Donor bone marrow is harvested from tibias and femurs of B10.BR mice. T-cells are eliminated from the bone marrow by treatment with anti-Thy1.2 and complement. Complement treatment for 2 cycles at 37° C. for 1 hour each results in more than 90% pure population of bone marrow cells. 10×10^6 T-cell depleted bone marrow [ATBM] cells are injected into the tail vein. Donor splenocytes undergo red blood cell lysis followed by B cell and CD4+ T-cells are depletion using anti-J1J and anti-RL147 antibodies, respectively. This purified CD8+ T-cell population from donors (5×10^6 cells) is injected into the tail vein of the animal. The host is lethally irradiated at 850 cGy approximately 6 hours prior to bone marrow transplantation. Characteristic features of murine acute GVHD include weight loss, diarrhea and loss of hair and death. Body weights were monitored before and after treatment. The treated mice were housed in sterile conditions and observed daily for acute GVHD-like reactions. Lethally irradiated mice reconstituted with ATBM only survive without signs of disease. Mice are treated with 0.5 mgs of SC2 peptide on Day 0, 3 and 6.

Row | Substance | inhibition of specific lysis of targets [1] | inhibition of specific lysis of targets (effectors generated in presence of peptide) [2] | also measured
1 | C-S-S-H-N-K-P-C (CSSHNKPC) [SC2] | inhibits specific lysis of targets in a concentration dependent manner | show inhibition of specific lysis of targets in a concentration dependent manner | skin graft survival ([3]; 0.5 mgs/200 μl PBS in the tail vein on Day 0, FIG. 1): consistently prolonged skin graft survival with biological significance; onset of GVHD [4]: delays the onset of GVHD
2 | CLSQNKPC (disulfide 1-8 (inferred)) [Wu-1, cyclic peptide consisting of human CD8 amino acids 52-57 with amino terminal and carboxy terminal cysteines] |  |  | inhibition of killing ([1]; 51[Cr]-release assay as described in Example 2, FIG. 3): approximately 50%
3 | Wu-2: linear peptide consisting of human CD8 amino acids 37-47 (CQPRGAAASPC) |  |  | rejection of skin grafts ([3]; skin transplantation assay of Example 4, FIG. 4): significant delay in rejection
4 | C-D-E-K-L-N-S-S-K-L-C (CDEKLNSSKLC; not fully specified; printed as C-D-E-K-L-N-S-S-K-L-C; cysteine pairing not given here) [SC11] | does not | show inhibition of specific lysis of targets in a concentration dependent manner | 
